Source: publication PMC10489817, “2-Alkyl-Substituted-4-Amino-Thieno[2,3-d]Pyrimidines: Anti-Proliferative Properties to In Vitro Breast Cancer Models” (Molecules, 2023)
Where “and” joins values, the source holds several entries; their conditions need not be identical. Equal values may be shown once.

How the values were obtained:
Assay type in all cases: cell-based, human
MDA-MB-231 = assay: Cell cycle analysis by propidium iodide staining, MDA-MB-231; details: for cell cycle arrest phase, MDA-MB-231: ER negative cell line; for change of %G1 vs control, MDA-MB-231 / change of %G2 vs control, MDA-MB-231 / change of %S vs control, MDA-MB-231: control = 100%, 24 h; for %G1, MDA-MB-231 / %G2, MDA-MB-231 / %S, MDA-MB-231: treated at IC50, 24 h
Description: (§1) Our study continued with the examination of the effect of the newly synthesized compounds’ IC50 values on cell cycle progression. The cell aliquots were collected, and FACS analyses were used to detect the effects of cell treatments with the selected compounds (2, 4, and 5). A propidium iodide staining assay was performed.
(§2) The changes in the cell cycle distribution in % (G1, S, and G2 phases), based on the graphical figures A–C, were calculated and are given in Table 4.
(§3) The cells were trypsinized, suspended in medium + 10% FCS, and centrifuged (1000 rpm, 5 min); then, the pellet was suspended in PBS (1 mL) and fixed with EtOH. The cells were suspended in 2.5 mL pre-cold 70% EtOH and incubated on ice for 15 min. The staining procedure was as follows: the pellet was suspended in a 500 μL PI-solution in PBS and 0.1 mg/mL RNase A, and 0.05% Triton X-100 was added. After incubation for 10 min at 37 °C, the cells were transferred to the flow cytometer and cell fluorescence was measured. The samples were measured by flow cytometry (LSR II, BD Biosciences, Franklin Lakes, NJ, USA) and analyzed using BD FACS DIVA software v. 6.1.3 (BD Biosciences).

MCF-10A [1] = assay: ζ-potential measurement, MCF-10A; details: PBS pH 7.4, 37 °C; more negative after treatment
Description: (§4) First, the ζ-potential of each cell line was measured, and all obtained values were negative (Figure 6A). The Student t-test statistical analysis which was applied distinguished the ζ-potentials of the three studied cell lines with p < 0.05, and the values followed the order of MCF-7 > MDA-MB-231 > MCF-10A. […] represents the relative percentage change of the ζ-potential induced by the studied compounds for the different cell lines. Compound 2 was able to decrease the ζ-potential of the cells with the following ranking: MCF-7 (42%) > MCF-10A (24%) > MDA-MB-231 (16%). For compound 4, the ranking was as follows: MCF-10A (50%) > MDA-MB-231 (46%) > MCF-7 (3%). For compound 5, this was MCF-10A (36%) > MCF-7 (22%) > […].
(§5) The zeta (ζ ξ) potential is the electrostatic potential at the shear plane of a cell, and is related to both its surface charge and the local environment. The ζ-potential of the intact cells and the treated ones was recorded in a cell suspension (0.5 × 10^6 cells/mL) in PBS, using the electrophoretic light-scattering technique on a Zetasizer Nano ZS analyzer (Malvern Instruments, Great Britain). Laser Doppler electrophoresis and velocimetry of cells were used to determine the ζ-potential by measuring the speeds of the cells in PBS upon the application of an electric field. The ζ-potential was calculated based on the Helmholtz–Smoluchowski equation. The measurements were performed in a U-shaped cell with gold-plated electrodes at 37 °C.
(§6) Figure 6 ζ-potential of the investigated cell lines, MCF-10A, MCF-7, and MDA-MB-231 (A). Alterations in the ζ-potential after treatment with compounds 2 (pink), 4 (blue), and 5 (green) (B). All zeta potential values were measured in PBS buffer (137 mM NaCl, 2.7 mM KCl, 8 mM Na2HPO4, and 2 mM KH2PO4; pH 7.4) at 37 °C. Two independent experiments were carried out for each cell line, and each sample was measured 6 times. (*; ***) denote p < 0.05 and p < 0.001 as follows. […]

MCF-10A [2] = assay: Cell cycle analysis by propidium iodide staining, MCF-10A; details: for change of %G1 vs control, MCF-10A / change of %G2 vs control, MCF-10A / change of %S vs control, MCF-10A: control = 100%, 24 h; for %G1, MCF-10A / %G2, MCF-10A / %S, MCF-10A: treated at IC50, 24 h
Description: as §1, §2, §3

MCF-7 = assay: ζ-potential measurement, MCF-7; details: PBS pH 7.4, 37 °C; more negative after treatment
Description: as §4, §5, §6

| SMILES | cell cycle arrest phase, MDA-MB-231 (MDA-MB-231) | change of %G1 vs control, MDA-MB-231 (MDA-MB-231) | change of %G2 vs control, MDA-MB-231 (MDA-MB-231) | change of %S vs control, MDA-MB-231 (MDA-MB-231) | %G1, MDA-MB-231 (MDA-MB-231) | %G2, MDA-MB-231 (MDA-MB-231) | %S, MDA-MB-231 (MDA-MB-231) | Δζ/ζ relative change of ζ-potential, MCF-10A (MCF-10A [1]) | change of %G1 vs control, MCF-10A (MCF-10A [2]) | change of %G2 vs control, MCF-10A (MCF-10A [2]) | change of %S vs control, MCF-10A (MCF-10A [2]) | %G1, MCF-10A (MCF-10A [2]) | %G2, MCF-10A (MCF-10A [2]) | %S, MCF-10A (MCF-10A [2]) | Δζ/ζ relative change of ζ-potential, MCF-7 (MCF-7) |
| --- | --- | --- | --- | --- | --- | --- | --- | --- | --- | --- | --- | --- | --- | --- | --- |
| CCOC(=O)Cc1nc(N)c2c(C)c(C(=O)OCC)sc2n1 [Compound 2, Ethyl 4-Amino-2-(2-Ethoxy-2-Oxoethyl)-5-Methylthieno[2,3-d]Pyrimidine-6-Carboxylate] | cell cycle arrest in the G2 stage | −17.63% | +53.65% | +15% | 34.1% | 6.73% | 53.6% | 24.27% and 24% | +5.439% | −6.42% | −20.8% | 85.9% | 6.55% | 7.328% | 42.14% and 42% |
| CCOC(=O)c1sc2nc(CC)nc(N)c2c1C [Compound 4, Ethyl 4-Amino-2-Ethyl-5-Methylthieno[2,3-d]Pyrimidine-6-Carboxylate] | cell cycle arrest in the G2 stage | −29.46% | +44.9% | +14.4% | 29.2% | 6.35% | 53.3% | 50.48% and 50% | +4.9% | +15.4% | −29.0% | 85.5% | 8.108% | 6.53% | 3.35% and 3% |
| CCOC(=O)c1sc2nc(C)nc(N)c2c1C [Compound 5, Ethyl 4-Amino-2,5-Dimethyl-Thieno[2,3-d]Pyrimidine-6-Carboxylate] | cell cycle arrest in the G2 stage | −20% | +45.9% | +15.45% | 33.1% | 6.439% | 53.8% | 35.94% and 36% | +5.52% | +24.657% | −13.9% | 86% | 8.72% | 7.92% | 22.27% and 22% |
